The target of the experiment is hDGAT2 (Homo sapiens (Human), UniProt Q96PD7). The experiment can be described thus: In vitro DGAT2 assay, determination of IC50 values. Format: biochemical. Particulars: geometric mean; hDGAT2 membrane fraction, [1-14C]decanoyl-CoA and 1,2-didecanoyl-sn-glycerol substrates.

As usually defined, the IC50 is the concentration needed to halve the response being measured. A higher IC50 goes with lower potency.

hDGAT2, sequence (Q96PD7 whole entry): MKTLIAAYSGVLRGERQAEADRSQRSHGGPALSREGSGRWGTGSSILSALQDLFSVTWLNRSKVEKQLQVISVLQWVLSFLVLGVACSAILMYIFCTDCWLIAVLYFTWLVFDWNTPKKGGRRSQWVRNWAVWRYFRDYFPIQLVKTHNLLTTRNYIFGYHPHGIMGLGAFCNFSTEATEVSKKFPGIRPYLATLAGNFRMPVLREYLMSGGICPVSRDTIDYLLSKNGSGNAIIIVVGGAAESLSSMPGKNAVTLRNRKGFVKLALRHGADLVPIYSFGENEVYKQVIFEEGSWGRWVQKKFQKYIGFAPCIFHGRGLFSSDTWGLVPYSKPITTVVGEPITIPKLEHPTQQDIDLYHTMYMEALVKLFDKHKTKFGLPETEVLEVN
Method: For the expression of hDGAT2, SF9 cells (20 L) grown in Sf900II media were infected with hDGAT2 baculovirus at a multiplicity of infection of 1 in a Wave Bioreactor System 20/50P wave bag (GE Healthcare). After 40 hours of infection, the cells were then harvested by centrifugation at 5,000×g. The cell pellets were washed by resuspending in phosphate buffered saline (PBS) and collected by centrifugation at 5,000×g. The cell paste was flash frozen in liquid N2 and stored at −80° C. until needed. All operations below were at 4° C. unless otherwise noted. The cells were resuspended in lysis buffer (50 mM Tris-HCl, pH 8.0, 250 mM sucrose) including 1 mM ethylenediaminetetraacetic acid (EDTA) and the complete protease inhibitor cocktail (Roche Diagnostics) at a ratio of 3 ml buffer per 1 g cell paste. The cells were lysed by dounce homogenizer. The cell debris was removed by centrifugation at 1,000×g for 20 min, and the supernatant was centrifuged at 100,000×g for 1 hour. […]
For determination of IC50 values, the reactions were carried out in 384-well white Polyplates (Perkin Elmer) in a total volume of 20 μL. […] Plates were centrifuged at 2,000×g for 1 minute in an Allegra 6R Centrifuge (Beckman Coulter) and then were sealed again with fresh covers before reading in a 1450 Microbeta Wallac Trilux Scintillation Counter (Perkin Elmer).

On to `CCOc1cccnc1Oc1cncc(-c2ncc(C(=O)N[C@H]3CCOC3)cn2)c1` [Example 1, (S)-2-(5-((3-ethoxypyridin-2-yl)oxy)pyridin-3-yl)-N-(tetrahydrofuran-3-yl)pyrimidine-5-carboxamide], for which 17.2 nM corresponded to half-maximal inhibition (IC50).

Values taken from patent publication US20250066337A1, “Amorphous Form of (S)-2-(5-((3-Ethoxypyridin-2-YL)Oxy)Pyridin-3-YL)-N-(Tetrahydrofuran-3-YL)Pyrimidine-5-Carboxamide” (Pfizer Inc., priority 2021, published 2025).
